# Source: patent US4447608A, “Anti-cancer quinazoline derivatives” (priority 1979, dated 1984)
# Entries after “also recorded” stand apart in the source; their conditions may differ. Read-outs that look alike come from different tables or passages of the source.
# Assays:
# [1] = system: transport of tritiated methotrexate into L1210 cells; assay: Inhibition of transport of tritiated methotrexate into L1210 cells; format: cell-based, mouse
# Protocol: (§1) The compounds of Example 2 were evaluated in vitro as inhibitors as TS and cell growth and in vivo against the L1210 tumour. Since methotrexate (MTX) resistance is an important problem in cancer therapy, the compounds of the present invention were also investigated with this in mind. The cross-resistance of the MTX resistant cell line L1210/R71, which is known to have elevated DHFR but normal MTX transport, was measured in culture, and the ability of the compounds of the invention to compete with labelled MTX or folic acid for transport into L1210 cells was also assessed.
# (§2) Transport studies were conducted on compound CB 3717 as representative of the invention compounds by incubating cells in the presence of a labelled substance, removing aliquots, separating and washing the cells by centrifugation and counting the pellet.
# [2] = system: L1210 cells; assay: Reversal of toxicity to L1210 cells in culture by folinic acid; format: cell-based, mouse; details: folinic acid up to 100 μM; FIG. 1: 20 μM CB 3717
# Protocol: (§3) L1210 and L1210:R71 cells were grown in continuous suspension culture in RPMI 1640 medium containing 10% horse serum (Flow Laboratories, Irvine, Scotland; UK). Cells were diluted to 10^5 /ml and additions (diluted in medium and sterilised in Millipore filtration) made prior to starting each incubation. Cell counts were performed after 24 and 48 hours using an improved Neubauer haemocytometer.
# [3] = system: L1210 cells; assay: Reversal of toxicity to L1210 cells in culture by thymidine; format: cell-based, mouse
# Protocol: as §3
# [4] = Toxicity and body weight change in treated L1210 tumour-bearing mice; format: in vivo, mice (female C57B1×DBA2 F1 hybrid)
# Protocol: (§4) The L1210 tumour was carried routinely in DBA2 mice. For experiments 5×10^4 cells were implanted i.p. into female C57B1×DBA2 F1 hybrid mice 3 days prior to treatment, giving an established tumour of about 2×10^6 cells at the time of treatment.
# [5] = system: transport of tritiated folic acid into L1210 cells; assay: Inhibition of transport of tritiated folic acid into L1210 cells; format: cell-based, mouse
# Protocol: as §1, §2
# [6] = system: L1210 cells; assay: Growth inhibition of L1210 cells in suspension culture, 48 h count; format: cell-based; details: Mus musculus
# Protocol: Cells were diluted to 10^5 /ml and additions (diluted in medium and sterilised in Millipore filtration) made prior to starting each incubation. Cell counts were performed after 24 and 48 hours using an improved Neubauer haemocytometer.
# [7] = system: L1210 tumour; assay: Treatment of L1210 ascitic tumour-bearing mice, survival; format: in vivo, mice (female C57B1×DBA2 F1 hybrid); details: for long term survivors (>120 days): FIG. 3
# Protocol: as §4
# (Animals were injected with 20 mM NaHCO3 buffer 0.4 ml daily×5 days.
# As the injection solutions could only be neutralised to pH 8.5 while preserving solubility, the appropriate controls were injected with bicarbonate at pH 8.5. […] For comparative purposes further groups of animals were treated with various doses of methotrexate, given on the same schedule.
# [8] = majority of cell types; cited from earlier work
# [9] = system: L1210:R71 cells; assay: Growth inhibition of methotrexate-resistant L1210:R71 cells in suspension culture, 48 h count; format: cell-based, mouse; details: relative to L1210
# Protocol: The compounds of Example 2 were evaluated in vitro as inhibitors as TS and cell growth and in vivo against the L1210 tumour. Since methotrexate (MTX) resistance is an important problem in cancer therapy, the compounds of the present invention were also investigated with this in mind.
# as §3
# [10] = 8 mg/kg i.p., daily × 5, 5 animals
# [11] = 16 mg/kg i.p., daily × 5, 5 animals, first 16 mg/kg line
# [12] = 16 mg/kg i.p., daily × 5, 5 animals, second 16 mg/kg line
# [13] = 32 mg/kg i.p., daily × 5, 5 animals
# [14] = 64 mg/kg i.p., daily × 5, 5 animals
# [15] = 80 mg/kg i.p., single dose, 5 animals
# [16] = 128 mg/kg i.p., daily × 5, 5 animals
# [17] = 160 mg/kg i.p., single dose, 5 animals
# [18] = methotrexate 3 mg/kg (optimal dose), daily×5, 10 animals
compound,measurement,setting,value
"C#CCN(Cc1ccc2nc(N)nc(O)c2c1)c1ccc(C(=O)N[C@@H](CCC(=O)O)C(=O)O)cc1 [CB 3717, N-(4-(N-((2-amino-4-hydroxy-6-quinazolinyl)methyl)prop-2-ynylamino)benzoyl)-L-glutamic acid]",apparent transport by the pathway used for methotrexate,[1],can apparently be transported by the pathway used for methotrexate
same,effect on transport of tritiated methotrexate,"[1]; 4 μM MTX, FIG. 2",inhibited; also recorded: dose-dependent reduction
same,reversal of toxicity by folinic acid,[2],only partial reversal; also recorded: does not reverse the effect
same,Reversal by thymidine (in culture),"[3]; second results table, L1210",yes
same,reversal of toxicity by co-incubation with thymidine,"[3]; thymidine 10 μM, FIG. 1: 20 μM CB 3717",Reversal of the toxicity; also recorded: virtually complete protection
same,body weight change / signs of toxicity,"[4]; 5 daily doses, 125 and 200 mg/kg/day, groups of 10 mice, FIG. 4",did not lose a significant amount of weight or show other signs of toxicity
same,toxicity of single doses,[4]; single doses up to 160 mg/Kg i.p.,not toxic
same,apparent transport by the pathway for folic acid,[5],also by that for folic acid
same,effect on transport of tritiated folic acid,"[5]; 4 μM folic acid, FIG. 2",inhibited; also recorded: dose-dependent reduction
same,IC50,"[6]; L1210, 48 h, second results table, read-out: ID50 L1210 (Tissue culture)",6.5 to 8.5 µM
same,IC50,"[6]; L1210, Table 2, 48 hour count reduced to 50% of control, read-out: ID50 L1210",5 µM
same,% Increase in mean survival time,[7]; [10],8%
same,Long term survivors (>200 days),[7]; [10],0
same,% Increase in mean survival time,[7]; [11],13%
same,Long term survivors (>200 days),[7]; [11],0
same,% Increase in mean survival time,[7]; [12],29%
same,Long term survivors (>200 days),[7]; [12],0
same,% Increase in mean survival time,[7]; [13],62%
same,Long term survivors (>200 days),[7]; [13],0
same,% Increase in mean survival time,[7]; [14],72%
same,Long term survivors (>200 days),[7]; [14],0
same,% Increase in mean survival time,[7]; [15],14%
same,Long term survivors (>200 days),[7]; [15],0
same,Long term survivors (>200 days),"[7]; 125 mg/kg i.p., daily × 5, 10 animals",9
same,% Increase in mean survival time,"[7]; 125 mg/kg i.p., daily × 5, 10 animals, see FIG. 3",> 1200%
same,long term survivors (>120 days),"[7]; 125 mg/kg, 5 daily doses",9 out of 10
same,% Increase in mean survival time,[7]; [16],> 1200%
same,Long term survivors (>200 days),[7]; [16],4
same,% Increase in mean survival time,[7]; [17],32%
same,Long term survivors (>200 days),[7]; [17],0
same,Long term survivors (>200 days),"[7]; 200 mg/kg i.p., daily × 5, 10 animals",9
same,% Increase in mean survival time,"[7]; 200 mg/kg i.p., daily × 5, 10 animals, see FIG. 3",> 1200%
same,long term survivors (>120 days),"[7]; 200 mg/kg, 5 daily doses",9 out of 10
same,increase in mean survival time with 5 daily dose schedule,"[7]; 5 daily doses, see Table 3",dose related
same,"difference in survival of CB 3717 and MTX treated animals, p (log rank test)","[7]; CB 3717 125 and 200 mg/kg vs MTX 3 mg/kg, daily×5",< 0.001
"CN(Cc1cnc2nc(N)nc(N)c2n1)c1ccc(C(=O)N[C@@H](CCC(=O)O)C(=O)O)cc1 [methotrexate, reference compound]",metabolic degradation,[8],does not undergo significant metabolic degradation
same,resistance of L1210:R71 to MTX,[9],about 600 fold
same,increase in median lifespan,[7]; [18],71%
same,long term survivors,[7]; [18],2/10
